Patent US11827917B1, “Methods for the conversion of fermentable sugars to ethanol” (Colorado State University Research Foundation, priority 2020, dated 2023)
Entries after “also recorded” stand apart in the source; their conditions may differ. Marks after values point to notes of the source that are not given here.

Tests used:
S. cerevisiae JAY 270 = assay: Screening of growth in 24-well plates on YPDA; assay type: cell-based, Saccharomyces cerevisiae; details: for Cell growth score (colony size): YPDA, 30° C., 24 h
Experimental: Procedure: An inoculum culture of S. cerevisiae JAY 270 was grown in 100 mL of yeast extract-peptone-dextrose (YPD) medium (10 g/L yeast extract, 20 g/L peptone, 20 g/L glucose) in 200-mL serum bottles overnight in a shaker at 30° C. and 200 rpm. The cells were collected by centrifuging 10 min at 4000×g and 4° C. To wash off the medium residue, the cell pellet was resuspended in 30 mL of sterile 0.8% (w/v) NaCl solution and centrifuged at 4000×g for 10 min. The cell pellet was washed twice. Finally, the cell pellet was resuspended and diluted in 0.8% (w/v) NaCl to achieve cell concentrations of OD600=0.02 and 0.2.
The eight compounds were added in YPDA separately at 0.03%, 0.05%, 0.1%, and 0.2% (w/v). The standard control treatment contained only YPDA medium without addition of these compounds. Since the TrpOH and TyrOH stock solutions were dissolved in DMSO, the controls for those tests were YPDA with the same concentration of DMSO. A 3-mL aliquot of YPDA medium with or without the test compounds were loaded in each well of the 24-well plate.
Ten μL of the prepared S. cerevisiae JAY 270 cell suspension at OD600=0.02 or 0.2 was loaded onto the YPDA medium in each well of the 24-well plates. Then the plates were sealed with Parafilm and incubated at 30° C. for 24 h. There were four biological replicates for each treatment.
Yeast cell growth was evaluated by visual observation of the colony size in the well and scored as 0, +, ++, and +++.

S. mikatae JAY 1504 = assay: Serum-bottle cultivation in YPD, different yeast strains; assay type: cell-based; details: 0.2%
Experimental: (§1) Analytical methods: Cell growth was evaluated by monitoring OD600 and cell dry mass concentration. For dry mass measurements, 1.0 mL of culture was transferred to a pre-dried and pre-weighed 2-mL centrifuge tube. The tubes were centrifuged for 10 min at 14000 rpm using a microcentrifuge, and then the cell pellets were dried in an oven for 3 days at 65° C. The cell dry mass was determined by subtracting the initial tube mass from the dried mass of tube with cells. The concentrations of glucose, ethanol, and glycerol were measured via HPLC (Shimadzu LC20A series) outfitted with a refractive index detector and using an Aminex HPX-87H (300×7.8 mm) organic acid column and Cation H+ guard cartridge (Bio Rad Laboratories, Hercules, CA). The column was maintained at 65° C. and the mobile phase was 5 mM sulfuric acid with a flow rate of 0.6 mL/min. Standard compound solutions were used to calibrate the HPLC. Each sample was analyzed three times by HPLC.
(§2) Procedure: Seven yeast strains (S. cerevisiae ATCC 26603, S. cerevisiae JAY 238, S. cerevisiae JAY 240, S. cerevisiae JAY 241, S. paradoxus JAY 1502, S. kudriavzezii JAY 1503, and S. mikatae JAY 1504) were pre-cultured in 30 mL of YPD medium in 100 mL serum bottle overnight in a shaker at 30° C. and 200 rpm. The precultured yeast cells of each strains were collected and washed twice. Finally, the cell pellet was resuspended in about 10 mL 0.8% (w/v) NaCl and the OD600 measured. TyrOH, PheOH, and TrpOH were added to 30 mL of YPD medium in 100-mL serum bottles at 0.2% (w/v) respectively. The same amount of DMSO was added in YPD medium and served as control to the TrpOH and TyrOH treatments. The prepared yeast cells were added to obtain the initial cell concentration at OD600=0.2. The serum bottles were sealed and cultured in a shaker at 30° C. and 200 rpm for 24 h. There were three biological replicates for each treatment.

S. paradoxus JAY 1502 = assay: as above; assay type: cell-based; details: 0.2%
Experimental: as §1, §2

S. kudriavzezii JAY 1503 = assay: as above; assay type: cell-based; details: 0.2%
Experimental: as §1, §2

[1] = S. mikatae JAY 1504, YPD (Table 9B)
[2] = S. paradoxus JAY 1502, YPD (Table 9B)
[3] = S. kudriavzezii JAY 1503, YPD (Table 9B)

OCCc1ccccc1 [PheOH, 2-phenylethanol]
Cell growth score (colony size) (S. cerevisiae JAY 270; 0.03% (w/v)): +++ | Cell growth score (colony size) (S. cerevisiae JAY 270; 0.05% (w/v)): +++ | Cell growth score (colony size) (S. cerevisiae JAY 270; 0.10% (w/v)): ++ | Cell growth score (colony size) (S. cerevisiae JAY 270; 0.20% (w/v)): + | Concentration at which cell growth was reduced in the plate assay (S. cerevisiae JAY 270; molar equivalent of the % w/v value): 8.2 mM | Effect on cell growth in the plate assay (words) (S. cerevisiae JAY 270; tested concentrations, 24-well plates): inhibited growth; also recorded: reduced the growth | Biomass Yield (S. mikatae JAY 1504; S. mikatae JAY 1504): 0.053 ± 0.000 g/g | Biomass yield % change vs. control (S. mikatae JAY 1504; S. mikatae JAY 1504): −14% | EtOH yield (S. mikatae JAY 1504; S. mikatae JAY 1504): 0.386 ± 0.009 g/g | EtOH yield % change vs. control (S. mikatae JAY 1504; S. mikatae JAY 1504): +3.6% | Glycerol yield (S. mikatae JAY 1504; S. mikatae JAY 1504): 0.043 ± 0.007 g/g | Glycerol yield % change vs. control (S. mikatae JAY 1504; S. mikatae JAY 1504): +4.1% | DCW (S. mikatae JAY 1504; S. mikatae JAY 1504, YPD): 2.35 mg | DCW Δ vs. ref (S. mikatae JAY 1504; S. mikatae JAY 1504, YPD): 77.1% | OD600 (S. mikatae JAY 1504; S. mikatae JAY 1504, YPD): 1.85 | OD600 Δ vs. ref (S. mikatae JAY 1504; S. mikatae JAY 1504, YPD): 82.9% | Biomass Yield (S. mikatae JAY 1504; [1]): 0.053 + 0.000 g/g | Biomass yield Δ vs. ref (S. mikatae JAY 1504; [1]): −13.8% | Ethanol yield (S. mikatae JAY 1504; [1]): 0.386 ± 0.009 g/g | Ethanol yield Δ vs. ref (S. mikatae JAY 1504; [1]): 3.6% | Glycerol yield (S. mikatae JAY 1504; [1]): 0.043 ± 0.007 g/g | Glycerol yield Δ vs. ref (S. mikatae JAY 1504; [1]): 4.09% | Biomass Yield (S. paradoxus JAY 1502; S. paradoxus JAY 1502): 0.048 ± 0.001 g/g | Biomass yield % change vs. control (S. paradoxus JAY 1502; S. paradoxus JAY 1502): −30* % | EtOH yield (S. paradoxus JAY 1502; S. paradoxus JAY 1502): 0.393 ± 0.000 g/g | EtOH yield % change vs. control (S. paradoxus JAY 1502; S. paradoxus JAY 1502): +2.7% | Glycerol yield (S. paradoxus JAY 1502; S. paradoxus JAY 1502): 0.048 ± 0.002 g/g | Glycerol yield % change vs. control (S. paradoxus JAY 1502; S. paradoxus JAY 1502): +22* % | DCW (S. paradoxus JAY 1502; S. paradoxus JAY 1502, YPD): 1.95 mg | DCW Δ vs. ref (S. paradoxus JAY 1502; S. paradoxus JAY 1502, YPD): 78.0% | OD600 (S. paradoxus JAY 1502; S. paradoxus JAY 1502, YPD): 1.64 | OD600 Δ vs. ref (S. paradoxus JAY 1502; S. paradoxus JAY 1502, YPD): 70.0% | Biomass Yield (S. paradoxus JAY 1502; [2]): 0.048 + 0.001 g/g | Biomass yield Δ vs. ref (S. paradoxus JAY 1502; [2]): −29.8% | Ethanol yield (S. paradoxus JAY 1502; [2]): 0.393 ± 0.000 g/g | Ethanol yield Δ vs. ref (S. paradoxus JAY 1502; [2]): 2.7% | Glycerol yield (S. paradoxus JAY 1502; [2]): 0.048 ± 0.002 g/g | Glycerol yield Δ vs. ref (S. paradoxus JAY 1502; [2]): 21.98% | Biomass Yield (S. kudriavzezii JAY 1503; S. kudriavzezii JAY 1503): 0.036 ± 0.001 g/g | Biomass yield % change vs. control (S. kudriavzezii JAY 1503; S. kudriavzezii JAY 1503): −19% | EtOH yield (S. kudriavzezii JAY 1503; S. kudriavzezii JAY 1503): 0.399 ± 0.030 g/g | EtOH yield % change vs. control (S. kudriavzezii JAY 1503; S. kudriavzezii JAY 1503): +8.7% | Glycerol yield (S. kudriavzezii JAY 1503; S. kudriavzezii JAY 1503): 0.060 ± 0.005 g/g | Glycerol yield % change vs. control (S. kudriavzezii JAY 1503; S. kudriavzezii JAY 1503): +19* % | DCW (S. kudriavzezii JAY 1503; S. kudriavzezii JAY 1503, YPD): 1.90 mg | DCW Δ vs. ref (S. kudriavzezii JAY 1503; S. kudriavzezii JAY 1503, YPD): 84.4% | OD600 (S. kudriavzezii JAY 1503; S. kudriavzezii JAY 1503, YPD): 0.92 | OD600 Δ vs. ref (S. kudriavzezii JAY 1503; S. kudriavzezii JAY 1503, YPD): 74.9% | Biomass Yield (S. kudriavzezii JAY 1503; [3]): 0.043 + 0.004 g/g | Biomass yield Δ vs. ref (S. kudriavzezii JAY 1503; [3]): 18.6% | Ethanol yield (S. kudriavzezii JAY 1503; [3]): 0.399 ± 0.030 g/g | Ethanol yield Δ vs. ref (S. kudriavzezii JAY 1503; [3]): 8.7% | Glycerol yield (S. kudriavzezii JAY 1503; [3]): 0.06 ± 0.005 g/g | Glycerol yield Δ vs. ref (S. kudriavzezii JAY 1503; [3]): 18.78%
